Source: patent EP4745135A1 (Gluetacs Therapeutics (Shanghai) Co., Ltd., priority 2023, dated 2025)

Tests used:
CK1α = target: T1, CK1α (Homo sapiens, UniProt P48729+Q96SW2); test: Western blot, degradation of substrate protein in hPBMCs; assay type: cell-based
T1 construct: effects of the compounds of the present disclosure on the expression of target proteins in cells; endogenous in cells; host or cells: human PBMCs (Milecell Biotechnologies)

IKZF1 = target: T2, IKZF1 (Homo sapiens, UniProt Q13422+Q96SW2); test: as above; assay type: cell-based
T2 construct: effects of the compounds of the present disclosure on the expression of target proteins in cells; endogenous in cells; host or cells: human PBMCs (Milecell Biotechnologies)

IKZF2 = target: T3, IKZF2 (Homo sapiens, UniProt Q96SW2+Q9UKS7); test: as above; assay type: cell-based
T3 construct: effects of the compounds of the present disclosure on the expression of target proteins in cells; endogenous in cells; host or cells: human PBMCs (Milecell Biotechnologies)

IKZF3 = target: T4, IKZF3 (Homo sapiens, UniProt Q96SW2+Q9UKT9); test: as above; assay type: cell-based
T4 construct: effects of the compounds of the present disclosure on the expression of target proteins in cells; endogenous in cells; host or cells: human PBMCs (Milecell Biotechnologies)

WEE1 = target: T5, WEE1 (Homo sapiens, UniProt P30291+Q96SW2); test: as above; assay type: cell-based
T5 construct: effects of the compounds of the present disclosure on the expression of target proteins in cells; endogenous in cells; host or cells: human PBMCs (Milecell Biotechnologies)

GSPT1 = test: as above; assay type: cell-based, Human
[1] = target: T6, human Cereblon WT GST-tagged protein (Homo sapiens, UniProt Q96SW2); test: CRBN-binding affinity, HTRF (CEREBLON BINDING kit); settings: for inhibition at 0.5 µM: read-out: Inhibition Rate at 0.5 µM (%); for inhibition at 2 µM: read-out: Inhibition Rate at 2 µM (%)
T6 construct: purchased CISBIO 64BDCRBNPEH

[2] = Western blot, 24 hours of compound treatment, compounds tested at 50 nM and 500 nM (concentration for the table not stated)
[3] = 24 hours treatment, compounds at 50 nM and 500 nM (concentration behind the class not stated)

T1 sequence (P48729 whole entry): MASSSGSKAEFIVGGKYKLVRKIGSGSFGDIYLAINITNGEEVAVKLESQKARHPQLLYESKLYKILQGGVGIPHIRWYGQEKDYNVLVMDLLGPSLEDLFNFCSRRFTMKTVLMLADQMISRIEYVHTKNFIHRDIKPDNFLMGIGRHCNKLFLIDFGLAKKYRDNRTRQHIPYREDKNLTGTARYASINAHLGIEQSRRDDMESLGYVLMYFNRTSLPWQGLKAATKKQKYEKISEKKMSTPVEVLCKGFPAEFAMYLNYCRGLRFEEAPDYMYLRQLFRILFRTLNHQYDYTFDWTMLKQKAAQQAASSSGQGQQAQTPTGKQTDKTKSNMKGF
T1 sequence (Q96SW2 whole entry): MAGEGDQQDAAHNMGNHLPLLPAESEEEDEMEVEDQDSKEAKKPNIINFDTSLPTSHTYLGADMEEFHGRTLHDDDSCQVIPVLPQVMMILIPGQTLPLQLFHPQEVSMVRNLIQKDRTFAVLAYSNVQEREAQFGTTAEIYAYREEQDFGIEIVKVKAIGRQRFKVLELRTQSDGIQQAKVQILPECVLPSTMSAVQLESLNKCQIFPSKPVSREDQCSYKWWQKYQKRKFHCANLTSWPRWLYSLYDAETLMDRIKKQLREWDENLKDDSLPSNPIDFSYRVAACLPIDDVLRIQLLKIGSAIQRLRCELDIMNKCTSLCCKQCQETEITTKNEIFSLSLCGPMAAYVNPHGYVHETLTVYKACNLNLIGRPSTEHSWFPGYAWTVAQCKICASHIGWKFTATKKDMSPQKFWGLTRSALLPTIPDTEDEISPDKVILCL
T1 sequence (Q16531 whole entry partner): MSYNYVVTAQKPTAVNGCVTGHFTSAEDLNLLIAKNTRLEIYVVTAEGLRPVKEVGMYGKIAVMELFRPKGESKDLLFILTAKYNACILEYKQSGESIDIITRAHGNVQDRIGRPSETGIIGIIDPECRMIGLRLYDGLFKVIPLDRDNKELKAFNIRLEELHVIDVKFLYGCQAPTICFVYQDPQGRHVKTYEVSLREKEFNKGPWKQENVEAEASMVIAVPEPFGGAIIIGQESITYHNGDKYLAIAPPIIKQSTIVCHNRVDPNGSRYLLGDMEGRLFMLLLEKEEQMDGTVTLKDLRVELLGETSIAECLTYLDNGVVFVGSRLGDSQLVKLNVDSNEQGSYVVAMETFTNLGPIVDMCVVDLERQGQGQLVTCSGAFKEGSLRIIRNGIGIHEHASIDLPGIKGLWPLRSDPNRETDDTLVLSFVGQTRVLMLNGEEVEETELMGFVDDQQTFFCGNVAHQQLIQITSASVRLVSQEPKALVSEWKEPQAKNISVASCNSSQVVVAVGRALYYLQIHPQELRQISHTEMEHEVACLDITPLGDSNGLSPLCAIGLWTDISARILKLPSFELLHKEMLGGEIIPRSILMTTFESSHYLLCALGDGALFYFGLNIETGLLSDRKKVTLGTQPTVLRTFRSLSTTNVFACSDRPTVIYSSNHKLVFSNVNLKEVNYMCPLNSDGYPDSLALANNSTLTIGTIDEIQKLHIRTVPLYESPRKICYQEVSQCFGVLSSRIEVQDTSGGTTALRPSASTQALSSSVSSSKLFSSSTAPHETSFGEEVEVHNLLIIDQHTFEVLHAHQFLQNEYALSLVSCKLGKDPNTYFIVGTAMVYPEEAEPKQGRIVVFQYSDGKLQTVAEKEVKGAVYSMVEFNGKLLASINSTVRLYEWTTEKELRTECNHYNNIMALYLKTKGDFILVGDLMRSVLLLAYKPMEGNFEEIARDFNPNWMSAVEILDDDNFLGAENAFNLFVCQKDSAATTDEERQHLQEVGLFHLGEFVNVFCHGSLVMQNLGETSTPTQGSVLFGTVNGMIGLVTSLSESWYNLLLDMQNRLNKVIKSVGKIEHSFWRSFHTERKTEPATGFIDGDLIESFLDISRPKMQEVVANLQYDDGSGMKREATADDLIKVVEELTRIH
T3 sequence (Q9UKS7 whole entry): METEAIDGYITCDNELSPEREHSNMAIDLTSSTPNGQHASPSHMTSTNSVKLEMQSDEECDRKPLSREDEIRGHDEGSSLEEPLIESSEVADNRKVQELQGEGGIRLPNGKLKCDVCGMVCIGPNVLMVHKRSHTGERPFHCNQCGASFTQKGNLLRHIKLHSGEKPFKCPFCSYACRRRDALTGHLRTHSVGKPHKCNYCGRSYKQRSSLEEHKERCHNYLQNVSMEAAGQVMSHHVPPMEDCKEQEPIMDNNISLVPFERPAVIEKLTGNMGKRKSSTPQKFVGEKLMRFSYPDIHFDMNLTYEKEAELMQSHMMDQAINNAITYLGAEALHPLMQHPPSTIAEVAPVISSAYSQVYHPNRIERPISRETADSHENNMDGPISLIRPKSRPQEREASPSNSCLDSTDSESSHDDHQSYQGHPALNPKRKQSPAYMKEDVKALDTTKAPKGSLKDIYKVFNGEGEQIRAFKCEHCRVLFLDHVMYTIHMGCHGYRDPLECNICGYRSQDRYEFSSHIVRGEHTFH
T3 sequence (Q96SW2 whole entry): as the sequence (Q96SW2 whole entry) above
T3 sequence (Q16531 whole entry partner): as the sequence (Q16531 whole entry partner) above
T6 sequence (Q96SW2 whole entry): as the sequence (Q96SW2 whole entry) above
T5 sequence (P30291 whole entry): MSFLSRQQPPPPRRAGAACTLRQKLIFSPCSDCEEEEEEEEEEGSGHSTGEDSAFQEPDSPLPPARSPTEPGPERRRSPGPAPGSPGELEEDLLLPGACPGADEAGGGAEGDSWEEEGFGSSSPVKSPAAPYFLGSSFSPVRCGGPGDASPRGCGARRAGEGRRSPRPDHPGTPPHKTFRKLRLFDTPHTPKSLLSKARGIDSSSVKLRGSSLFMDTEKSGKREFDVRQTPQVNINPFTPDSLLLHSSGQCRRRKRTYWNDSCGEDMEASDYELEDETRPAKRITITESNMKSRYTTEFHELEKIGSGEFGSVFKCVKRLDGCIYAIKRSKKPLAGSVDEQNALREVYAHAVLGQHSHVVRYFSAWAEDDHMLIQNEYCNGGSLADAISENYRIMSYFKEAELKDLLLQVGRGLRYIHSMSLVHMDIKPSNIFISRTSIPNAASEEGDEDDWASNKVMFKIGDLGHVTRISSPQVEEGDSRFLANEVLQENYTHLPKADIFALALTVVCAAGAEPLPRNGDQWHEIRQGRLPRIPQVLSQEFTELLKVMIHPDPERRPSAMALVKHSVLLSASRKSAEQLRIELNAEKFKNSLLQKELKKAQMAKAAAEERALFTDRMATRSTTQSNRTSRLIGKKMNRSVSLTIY
T5 sequence (Q96SW2 whole entry): as the sequence (Q96SW2 whole entry) above
T5 sequence (Q16531 whole entry partner): as the sequence (Q16531 whole entry partner) above
T4 sequence (Q9UKT9 whole entry): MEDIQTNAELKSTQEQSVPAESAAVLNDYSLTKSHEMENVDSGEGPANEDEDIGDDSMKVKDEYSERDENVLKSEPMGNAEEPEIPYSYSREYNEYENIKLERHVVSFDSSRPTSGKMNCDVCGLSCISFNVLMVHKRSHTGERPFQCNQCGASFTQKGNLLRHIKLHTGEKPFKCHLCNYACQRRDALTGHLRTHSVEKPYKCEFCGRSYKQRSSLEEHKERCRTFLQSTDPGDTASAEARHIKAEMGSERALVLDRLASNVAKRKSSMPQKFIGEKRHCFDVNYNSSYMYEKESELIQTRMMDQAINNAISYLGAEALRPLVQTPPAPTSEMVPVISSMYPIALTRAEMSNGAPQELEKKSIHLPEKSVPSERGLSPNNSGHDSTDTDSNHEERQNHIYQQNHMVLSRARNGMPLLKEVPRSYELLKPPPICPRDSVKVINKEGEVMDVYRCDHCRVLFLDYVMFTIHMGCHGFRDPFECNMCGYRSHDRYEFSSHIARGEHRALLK
T4 sequence (Q96SW2 whole entry): as the sequence (Q96SW2 whole entry) above
T4 sequence (Q16531 whole entry partner): as the sequence (Q16531 whole entry partner) above
T2 sequence (Q13422 whole entry): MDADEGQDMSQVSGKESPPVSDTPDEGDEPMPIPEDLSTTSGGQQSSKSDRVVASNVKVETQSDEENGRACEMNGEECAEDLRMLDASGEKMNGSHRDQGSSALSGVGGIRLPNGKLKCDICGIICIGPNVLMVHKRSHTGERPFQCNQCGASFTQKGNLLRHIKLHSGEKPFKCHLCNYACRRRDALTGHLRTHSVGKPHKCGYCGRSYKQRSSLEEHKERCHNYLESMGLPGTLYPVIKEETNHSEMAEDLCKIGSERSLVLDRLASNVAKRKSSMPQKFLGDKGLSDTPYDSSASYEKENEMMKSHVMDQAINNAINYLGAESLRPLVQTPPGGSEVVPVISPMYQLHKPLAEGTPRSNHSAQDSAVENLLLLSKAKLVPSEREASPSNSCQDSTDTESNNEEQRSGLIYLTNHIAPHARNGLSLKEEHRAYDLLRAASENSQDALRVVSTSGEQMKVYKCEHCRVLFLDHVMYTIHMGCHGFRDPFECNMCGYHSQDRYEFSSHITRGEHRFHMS
T2 sequence (Q96SW2 whole entry): as the sequence (Q96SW2 whole entry) above
T2 sequence (Q16531 whole entry partner): as the sequence (Q16531 whole entry partner) above

Row | inhibition at 0.5 µM [1] | inhibition at 2 µM [1] | Structure (SMILES) | CK1α substrate protein remaining % (CK1α; [2]) | IKZF 1 substrate protein remaining % (IKZF1; [2]) | IKZF2 substrate protein remaining % (IKZF2; [2]) | IKZF3 substrate protein remaining % (IKZF3; [2]) | Wee1 substrate protein remaining % (WEE1; [2]) | GSPT1 substrate protein remaining % (GSPT1; [2]) | CK1α substrate protein remaining % (CK1α; [3]) | IKZF 1 substrate protein remaining % (IKZF1; [3]) | IKZF2 substrate protein remaining % (IKZF2; [3]) | IKZF3 substrate protein remaining % (IKZF3; [3]) | Wee1 substrate protein remaining % (WEE1; [3]) | GSPT1 substrate protein remaining % (GSPT1; [3])
1 | 40 to 53% | 60 to 80% | O=C1CCC(N2Cc3c(CN4CCC(c5ccc(Br)cc5)CC4)cccc3C2=S)C(=O)N1 (stereo not drawn) [GT-08592, 3-(4-((4-(4-bromophenyl)piperidin-1-yl)methyl)-1-thioxoisoindolin-2-yl)piperidine-2,6-dione] | B (80%< substrate protein remaining %≤ 100%) | B (80%< substrate protein remaining %≤ 100%) | B (80%< substrate protein remaining %≤ 100%) | B (80%< substrate protein remaining %≤ 100%) | A (0% ≤ substrate protein remaining % ≤ 80%) | B (80%< substrate protein remaining %≤ 100%) | – | – | – | – | – | –
2 | 60 to 80% | 80 to 100% | O=C1CCC(N2Cc3c(CN4CC(c5ccnc6cc(F)ccc56)C4)cccc3C2=S)C(=O)N1 (stereo not drawn) [GT-08860, 3-(4-((3-(7-fluoroquinolin-4-yl)azetidin-1-yl)methyl)-1-thioxoisoindolin-2-yl)piperidine-2,6-dione] | – | – | – | – | – | – | B (80%< substrate protein remaining %≤ 100%) | B (80%< substrate protein remaining %≤ 100%) | B (80%< substrate protein remaining %≤ 100%) | B (80%< substrate protein remaining %≤ 100%) | A (0% ≤ substrate protein remaining % ≤ 80%) | A (0% ≤ substrate protein remaining % ≤ 80%)
3 | 60 to 80% | 80 to 100% | O=C1CCC(N2Cc3c(CN4CCN(c5cc(F)cc(F)c5)CC4)cccc3C2=S)C(=O)N1 (stereo not drawn) [GT-08632, 3-(4-((4-(3,5-difluorophenyl)piperazin-1-yl)methyl)-1-thioxoisoindolin-2-yl)piperidine-2,6-dione] | B (80%< substrate protein remaining %≤ 100%) | B (80%< substrate protein remaining %≤ 100%) | B (80%< substrate protein remaining %≤ 100%) | B (80%< substrate protein remaining %≤ 100%) | A (0% ≤ substrate protein remaining % ≤ 80%) | B (80%< substrate protein remaining %≤ 100%) | – | – | – | – | – | –
4 | 53 to 60% | 80 to 100% | O=C1CCC(N2Cc3c(CN4CCN(c5c(F)c(F)nc(F)c5F)CC4)cccc3C2=S)C(=O)N1 (stereo not drawn) [GT-08809, 3-(4-((4-(perfluoropyridin-4-yl)piperazin-1-yl)methyl)-1-thioxoisoindolin-2-yl)piperidine-2,6-dione] | B (80%< substrate protein remaining %≤ 100%) | A (0% ≤ substrate protein remaining % ≤ 80%) | A (0% ≤ substrate protein remaining % ≤ 80%) | A (0% ≤ substrate protein remaining % ≤ 80%) | A (0% ≤ substrate protein remaining % ≤ 80%) | A (0% ≤ substrate protein remaining % ≤ 80%) | – | – | – | – | – | –
5 | 40 to 53% | 80 to 100% | O=C1CCC(N2Cc3c(CN4CCN(c5nccc(I)c5F)CC4)cccc3C2=S)C(=O)N1 (stereo not drawn) [GT-08704, 3-(4-((4-(3-fluoro-4-iodopyridin-2-yl)piperazin-1-yl)methyl)-1-thioxoisoindolin-2-yl)piperidine-2,6-dione] | B (80%< substrate protein remaining %≤ 100%) | B (80%< substrate protein remaining %≤ 100%) | A (0% ≤ substrate protein remaining % ≤ 80%) | A (0% ≤ substrate protein remaining % ≤ 80%) | A (0% ≤ substrate protein remaining % ≤ 80%) | B (80%< substrate protein remaining %≤ 100%) | – | – | – | – | – | –
6 | 60 to 80% | 80 to 100% | O=C1CCC(N2Cc3cc(CN4CC=C(c5ncnc6scc(-c7ccccc7)c56)CC4)ccc3C2=S)C(=O)N1 (stereo not drawn) [GT-09320, 3-(5-((4-(5-phenylthieno[2,3-d]pyrimidin-4-yl)-3,6-dihydropyridin-1(2H)-yl)methyl)-1-thioxoisoindolin-2-yl)piperidine-2,6-dione] | – | – | – | – | – | – | B (80%< substrate protein remaining %≤ 100%) | B (80%< substrate protein remaining %≤ 100%) | B (80%< substrate protein remaining %≤ 100%) | B (80%< substrate protein remaining %≤ 100%) | A (0% ≤ substrate protein remaining % ≤ 80%) | A (0% ≤ substrate protein remaining % ≤ 80%)
7 | 60 to 80% | 80 to 100% | O=C1CCC(N2Cc3c(CN4CCN(c5ccc(Cl)nn5)CC4)cccc3C2=S)C(=O)N1 (stereo not drawn) [GT-08811, 3-(4-((4-(6-chloropyridazin-3-yl)piperazin-1-yl)methyl)-1-thioxoisoindolin-2-yl)piperidine-2,6-dione] | A (0% ≤ substrate protein remaining % ≤ 80%) | A (0% ≤ substrate protein remaining % ≤ 80%) | A (0% ≤ substrate protein remaining % ≤ 80%) | A (0% ≤ substrate protein remaining % ≤ 80%) | A (0% ≤ substrate protein remaining % ≤ 80%) | A (0% ≤ substrate protein remaining % ≤ 80%) | – | – | – | – | – | –
8 | 40 to 53% | 80 to 100% | O=C1CCC(N2Cc3c(CN4CCN(c5ncnc6sc7c(c56)CCCC7)CC4)cccc3C2=S)C(=O)N1 (stereo not drawn) [GT-08924, 3-(4-((4-(5,6,7,8-tetrahydrobenzo[4,5]thieno[2,3-d]pyrimidin-4-yl)piperazin-1-yl)methyl)-1-thioxoisoindolin-2-yl)piperidine-2,6-dione] | – | – | – | – | – | – | B (80%< substrate protein remaining %≤ 100%) | B (80%< substrate protein remaining %≤ 100%) | A (0% ≤ substrate protein remaining % ≤ 80%) | B (80%< substrate protein remaining %≤ 100%) | A (0% ≤ substrate protein remaining % ≤ 80%) | B (80%< substrate protein remaining %≤ 100%)

Row | Structure (SMILES) | inhibition at 0.5 µM [1] | inhibition at 2 µM [1] | CK1α substrate protein remaining % (CK1α; [2]) | IKZF 1 substrate protein remaining % (IKZF1; [2]) | IKZF2 substrate protein remaining % (IKZF2; [2]) | IKZF3 substrate protein remaining % (IKZF3; [2]) | Wee1 substrate protein remaining % (WEE1; [2]) | GSPT1 substrate protein remaining % (GSPT1; [2]) | CK1α substrate protein remaining % (CK1α; [3]) | IKZF 1 substrate protein remaining % (IKZF1; [3]) | IKZF2 substrate protein remaining % (IKZF2; [3]) | IKZF3 substrate protein remaining % (IKZF3; [3]) | Wee1 substrate protein remaining % (WEE1; [3]) | GSPT1 substrate protein remaining % (GSPT1; [3])
9 | O=C1CCC(N2Cc3c(CN4CC=C(c5c[nH]c6ncccc56)CC4)cccc3C2=S)C(=O)N1 (stereo not drawn) [GT-08494, 3-(4-((4-(1H-pyrrolo[2,3-b]pyridin-3-yl)-3,6-dihydropyridin-1(2H)-yl)methyl)-1-thioxoisoindolin-2-yl)piperidine-2,6-dione] | 60 to 80% | 80 to 100% | B (80%< substrate protein remaining %≤ 100%) | A (0% ≤ substrate protein remaining % ≤ 80%) | A (0% ≤ substrate protein remaining % ≤ 80%) | B (80%< substrate protein remaining %≤ 100%) | A (0% ≤ substrate protein remaining % ≤ 80%) | B (80%< substrate protein remaining %≤ 100%) | – | – | – | – | – | –
